In article PMC11836371, “Virtual fragment screening for DNA repair inhibitors in vast chemical space” (Nature Communications, 2025):
Where “and” joins values, the source holds several entries; their conditions need not be identical. Equal values may be shown once.

How the values were obtained:
Format in all cases: cell-based
A549 cells = test: Cancer cell viability assay (resazurin), A549; conditions: two independent experiments
Experimental: (§1) Three different cancer cell lines A2780 (ovarian cancer, ECACC 93112519), A549 (lung cancer, ATCC 60150896) and HCT116 (colon cancer, ATCC CCL-247), and one immortalized fibroblast cell line (BJhTERT) as control, were seeded in black/clear 384-well plates (Corning #3764), 50 µL/well, containing 11 concentrations, nano-dispensed, dose-response curves of the test compounds. A2780, HCT116, and HEK293T cell lines were authenticated with STR profiling, frozen down, and these stocks were used in experiments. The A2780 cells were cultured in RPMI 1640, the A549 and BJhTERT cells in DMEM, and the HCT116 cells in McCoys 5 A medium. All media were supplemented with 10% FBS and 1% P/S. All cell culture media, additives, and reagents were purchased from Thermo Fisher Scientific. The cell plates were incubated 72 hours in a humidified incubator at 37 °C with 5% CO2, after which resazurin (Sigma-Aldrich), 10 µL/well, was added to a final concentration of 10 µg/mL. The plates were incubated for 6 hours with resazurin followed by fluorescence readings in a Sense plate reader (Hidex), resorufin protocol (ex 544 nm/em 595 nm). The cell viability was calculated compared to untreated control wells and the EC50 values were determined in XLfit (IDBS).

[1] = Cell viability assay (resazurin), BJhTERT non-transformed control; design: key to cell viability, cytotoxicity curve (Figure3H): % viability relative to untreated control wells; conditions: human, BJhTERT
Experimental: (§2) A2780, HCT116, and HEK293T cell lines were authenticated with STR profiling, frozen down, and these stocks were used in experiments. […] All media were supplemented with 10% FBS and 1% P/S. All cell culture media, additives, and reagents were purchased from Thermo Fisher Scientific. The cell plates were incubated 72 hours in a humidified incubator at 37 °C with 5% CO2, after which resazurin (Sigma-Aldrich), 10 µL/well, was added to a final concentration of 10 µg/mL. […] The cell viability was calculated compared to untreated control wells and the EC50 values were determined in XLfit (IDBS).

BJhTERT cells = test: as above; design: key to cell viability, cytotoxicity curve (Figure3H): % viability relative to untreated control wells
Experimental: as §2

A2780 cells = test: Cancer cell viability assay (resazurin), A2780; design: key to cell viability, cytotoxicity curve (Figure3H): % viability relative to untreated control wells
Experimental: as §1

## Nc1nn(-c2ccc(CC(=O)Nc3noc4c3CCCC4)cc2)c2ccccc12 [compound 11]
A549 cells; A549, 100 μM, 100 µM
  percentage cell viability: 21.3%
A549 cells; Homo sapiens, A549, A549, 100 μM, read-out: percentage cell viability
  viability at 100 µM: 17.2%
[1]; 100 μM, two independent experiments, read-out: percentage cell viability
  viability at 72 h, 100 µM: 38.2%
[1]; Log conc. (M) 5.12861e-9, read-out: cell viability, cytotoxicity curve (Figure3H)
  viability at 72 h, 5.12861e-09 M: 94.3%
[1]; Log conc. (M) 1.51356e-8, read-out: cell viability, cytotoxicity curve (Figure3H)
  viability at 72 h, 1.51356e-08 M: 81.4%
[1]; Log conc. (M) 4.57088e-8, read-out: cell viability, cytotoxicity curve (Figure3H)
  viability at 72 h, 4.57088e-08 M: 92%
[1]; Log conc. (M) 1.38038e-7, read-out: cell viability, cytotoxicity curve (Figure3H)
  viability at 72 h, 1.38038e-07 M: 101%
[1]; Log conc. (M) 4.0738e-7, read-out: cell viability, cytotoxicity curve (Figure3H)
  viability at 72 h, 4.0738e-07 M: 79.8%
[1]; Log conc. (M) 1.23027e-6, read-out: cell viability, cytotoxicity curve (Figure3H)
  viability at 72 h, 1.23027e-06 M: 87.1%
[1]; Log conc. (M) 3.71535e-6, read-out: cell viability, cytotoxicity curve (Figure3H)
  viability at 72 h, 3.71535e-06 M: 84%
[1]; Log conc. (M) 1.12202e-5, read-out: cell viability, cytotoxicity curve (Figure3H)
  viability at 72 h, 1.12202e-05 M: 89.3%
[1]; Log conc. (M) 3.31131e-5, read-out: cell viability, cytotoxicity curve (Figure3H)
  viability at 72 h, 3.31131e-05 M: 71%
[1]; Log conc. (M) 0.0001, read-out: cell viability, cytotoxicity curve (Figure3H)
  viability at 72 h, 0.0001 M: 38.2%
BJhTERT cells; BJhTERT, 100 μM, two independent experiments
  percentage cell viability: 40.28%
BJhTERT cells; BJhTERT, Log conc. (M) 1.69824e-9
  cell viability, cytotoxicity curve (Figure3H): 80.73 and 114.45
BJhTERT cells; BJhTERT, Log conc. (M) 5.12861e-9
  cell viability, cytotoxicity curve (Figure3H): 111.95
BJhTERT cells; BJhTERT, Log conc. (M) 1.51356e-8
  cell viability, cytotoxicity curve (Figure3H): 93.48
BJhTERT cells; BJhTERT, Log conc. (M) 4.57088e-8
  cell viability, cytotoxicity curve (Figure3H): 99.27
BJhTERT cells; BJhTERT, Log conc. (M) 1.38038e-7
  cell viability, cytotoxicity curve (Figure3H): 112.5
BJhTERT cells; BJhTERT, Log conc. (M) 4.0738e-7
  cell viability, cytotoxicity curve (Figure3H): 95.56
BJhTERT cells; BJhTERT, Log conc. (M) 1.23027e-6
  cell viability, cytotoxicity curve (Figure3H): 91.5
BJhTERT cells; BJhTERT, Log conc. (M) 3.71535e-6
  cell viability, cytotoxicity curve (Figure3H): 96.04
BJhTERT cells; BJhTERT, Log conc. (M) 1.12202e-5
  cell viability, cytotoxicity curve (Figure3H): 108.1
BJhTERT cells; BJhTERT, Log conc. (M) 3.31131e-5
  cell viability, cytotoxicity curve (Figure3H): 71.45
BJhTERT cells; BJhTERT, Log conc. (M) 0.0001
  cell viability, cytotoxicity curve (Figure3H): 40.28
BJhTERT cells; non-transformed cells (BJhTERT), 72 h, read-out: EC50 (loss of viability)
  EC50: > 70 µM
A2780 cells; A2780, 100 μM, two independent experiments, 100 µM
  percentage cell viability: 1.69%
A2780 cells; A2780, Log conc. (M) 1.69824e-9
  cell viability, cytotoxicity curve (Figure3H): 91.8 and 117.36
A2780 cells; A2780, Log conc. (M) 5.12861e-9
  cell viability, cytotoxicity curve (Figure3H): 99.13 and 112.7
A2780 cells; A2780, Log conc. (M) 1.51356e-8
  cell viability, cytotoxicity curve (Figure3H): 105.26 and 125.33
A2780 cells; A2780, Log conc. (M) 4.57088e-8
  cell viability, cytotoxicity curve (Figure3H): 93.79 and 108.52
A2780 cells; A2780, Log conc. (M) 1.38038e-7
  cell viability, cytotoxicity curve (Figure3H): 82.27 and 122.21
A2780 cells; A2780, Log conc. (M) 4.0738e-7
  cell viability, cytotoxicity curve (Figure3H): 73.45 and 78.71
A2780 cells; A2780, Log conc. (M) 1.23027e-6
  cell viability, cytotoxicity curve (Figure3H): 82.77 and 87.65
A2780 cells; A2780, Log conc. (M) 3.71535e-6
  cell viability, cytotoxicity curve (Figure3H): 59.52 and 70.03
A2780 cells; A2780, Log conc. (M) 1.12202e-5
  cell viability, cytotoxicity curve (Figure3H): 22.19 and 22.95
A2780 cells; A2780, Log conc. (M) 3.31131e-5
  cell viability, cytotoxicity curve (Figure3H): 6.15 and 7.44
A2780 cells; A2780, Log conc. (M) 0.0001
  cell viability, cytotoxicity curve (Figure3H): 1.69
A2780 cells; Homo sapiens, A2780, A2780, 100 μM, two independent experiments, read-out: percentage cell viability
  viability at 100 µM: 1.43%
A2780 cells; Homo sapiens, A2780 cancer cells, 72 h, read-out: EC50 (loss of viability)
  EC50: 5.4 µM
